Results from patent US20220267281A1, “UNSATURATED HETEROCYCLOALKYL AND HETEROAROMATIC ACYL HYDRAZONE LINKERS, METHODS AND USES THEREOF” (priority 2019, published 2022).

System: SKOV3 ovarian cells
Test: Cytotoxicity of ADCs against SKOV3 cell lines (viable cells by ATP content, CellTiter-Glo)
Type: cell-based
Conditions: SKOV3 ovarian cancer cells, 3 to 5 days incubation with ADC, % survival curve fit
Procedure: The cytotoxic activity of Trastuzumab ADCs of Formula (IV) was tested against SKOV3 ovarian cell lines
SKOV3 ovarian cells were incubated with the effectors for a period corresponding to 2 to 3 times their estimated doubling time and the amount of viable cells was determine by measuring ATP content in the wells. […] All ADCs were diluted in DPBS to 6× the highest concentration tested, followed by 10 3-fold serial dilutions in DPBS for a total of 11 concentration points. Each point was added to triplicate wells. DPBS was added in wells to measure the maximum growth. Cells were diluted at their appropriate seeding density (ranging from 150 to 1000 cells per well) in complete media supplemented with glutamine 2 mM, serum and antibiotic cocktail. […] Total ATP was measured using CellTiter-Glo™ reagent from Promega as recommended by the supplier. […] Signal output was measured on a luminescence plate reader (Envision™, Perkin Elmer) set at an integration time of 0.1 sec. […]
Each concentration point (S) was normalized to the negative control wells (NC) and expressed as % survival (NC-S/NC×100). Potency (IC50) and efficacy were calculated from a non-linear curve fit of the points versus log of the concentrations without constrain on the slope. Refined data were analysed using Prism™ software.

Substance: Synagis-SMCC-DM1: negative control ADC
- IC50: 4.01 nM
